According to paper PMC8159961, “Exploring protein hotspots by optimized fragment pharmacophores” (Nature Communications, 2021):
Several values for one entry are separate records, joined by “and”; a condition that tells them apart may be missing. Identical values can stand only once. Like-named read-outs stand apart in the source and are kept apart here.

How the values were obtained:
[1] = target: T1, human 5-HT7b receptor (Homo sapiens, UniProt P34969); assay: GPCR radioligand binding assay, [3H]-5-CT displacement, HEK293 membranes; conditions: for experimental hit status, 5-HT7: 1 = hit, 0 = no hit, tested at 10 µM, hit = 50% or stronger inhibition
T1 construct: expressed in transfected cells

[2] = target: T2, human thrombin (Homo sapiens, UniProt P00734); assay: Protease inhibitory assay, chromogenic substrate S-2238; assay type: biochemical; conditions: for experimental hit status, Thrombin: 1 = hit, 0 = no hit, screening at 200 µM
T2 construct: human thrombin; purchased Sigma-Aldrich

[3] = target: T3, recombinant SETD2 (Homo sapiens, UniProt Q9BYW2); assay: SETD2 Chemiluminescence assay (H3K36 tri-methylation); assay type: biochemical; conditions: for experimental hit status, SETD2: 1 = hit, 0 = no hit; for SETD2 signal normalised to positive control and internally to compound: nM], replicates
T3 construct: purchased BPS Bioscience 52060
T3 sequence (Q9BYW2 1418-1714 limits assumed): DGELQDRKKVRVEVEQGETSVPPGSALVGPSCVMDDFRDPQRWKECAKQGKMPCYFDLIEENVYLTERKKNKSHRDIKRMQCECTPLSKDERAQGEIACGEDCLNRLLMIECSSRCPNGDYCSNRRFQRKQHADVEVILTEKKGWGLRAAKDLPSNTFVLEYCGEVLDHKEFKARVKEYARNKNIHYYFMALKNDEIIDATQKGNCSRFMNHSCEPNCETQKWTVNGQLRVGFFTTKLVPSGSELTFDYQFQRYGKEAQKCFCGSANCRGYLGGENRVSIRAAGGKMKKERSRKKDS

[4] = target: T4, bovine factor Xa (Bos taurus, UniProt P00743); assay: Protease inhibitory assay, chromogenic substrate S-2222; assay type: biochemical; conditions: for experimental hit status, Factor Xa: 1 = hit, 0 = no hit, screening at 200 µM
T4 construct: bovine factor Xa, Chromogenix, 2 nkat/mL; purchased Chromogenix

[5] = target: T5, human 5-HT1A receptor (Homo sapiens, UniProt P08908); assay: GPCR radioligand binding assay, [3H]-8-OH-DPAT displacement, HEK293 membranes; conditions: for experimental hit status, 5-HT1: 1 = hit, 0 = no hit, tested at 10 µM, hit = 50% or stronger inhibition
T5 construct: expressed in transfected cells
T5 sequence (P08908 1-422): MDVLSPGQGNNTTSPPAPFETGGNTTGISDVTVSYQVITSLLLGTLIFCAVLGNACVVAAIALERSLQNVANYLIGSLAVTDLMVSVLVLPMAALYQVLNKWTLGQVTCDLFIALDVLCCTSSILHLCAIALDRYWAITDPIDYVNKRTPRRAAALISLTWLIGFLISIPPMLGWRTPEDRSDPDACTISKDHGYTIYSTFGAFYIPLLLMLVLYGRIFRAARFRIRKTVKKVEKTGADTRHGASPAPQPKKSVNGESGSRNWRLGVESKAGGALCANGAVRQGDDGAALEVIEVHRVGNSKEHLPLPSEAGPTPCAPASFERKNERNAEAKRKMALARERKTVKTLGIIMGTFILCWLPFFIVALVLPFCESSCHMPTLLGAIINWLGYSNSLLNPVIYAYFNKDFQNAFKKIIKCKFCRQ

[6] = target: T6, human 5-HT6 receptor (Homo sapiens, UniProt P50406); assay: GPCR radioligand binding assay, [3H]-LSD displacement, HEK293 membranes; conditions: for experimental hit status, 5-HT6: 1 = hit, 0 = no hit, tested at 10 µM, hit = 50% or stronger inhibition
T6 construct: expressed in transfected cells

[7] = test system: MV4-11 leukemia cells; assay: Cell viability assay, CellTiter-Glo, 5 days; conditions: for normalized viability (0 = 0 % viability, 1 = 100 % viability): MV4-11, nM], replicates
[8] = test system: MOLM-13 leukemia cells; assay: Cell viability assay, CellTiter-Glo, 5 days; conditions: for normalized viability (0 = 0 % viability, 1 = 100 % viability): MOLM-13, nM], replicates
[9] = 10 µM, read-out: 5-HT7 % Inhibition by plate position
[10] = 5-HT7, average of exp_1 and exp_2, read-out: %inh 5-HT7 average
[11] = 5-HT7, average, values below 0 and above 100% were set as 0 and 100, read-out: %inh 5-HT7 corrected*
[12] = 5-HT7, replicate exp_1, read-out: %inh 5-HT7 exp_1
[13] = 5-HT7, replicate exp_2, read-out: %inh 5-HT7 exp_2
[14] = 10 µM, read-out: 5-HT1A % Inhibition by plate position
[15] = 5-HT1A, average of exp_1 and exp_2, read-out: %inh 5-HT1A average
[16] = 5-HT1A, average, values below 0 and above 100% were set as 0 and 100, read-out: %inh 5-HT1A corrected*
[17] = 5-HT1A, replicate exp_1, read-out: %inh 5-HT1A exp_1
[18] = 5-HT1A, replicate exp_2, read-out: %inh 5-HT1A exp_2
[19] = 10 µM, read-out: 5-HT6 % Inhibition by plate position
[20] = 5-HT6, average of exp_1 and exp_2, read-out: %inh 5-HT6 average
[21] = 5-HT6, average, values below 0 and above 100% were set as 0 and 100, read-out: %inh 5-HT6 corrected*
[22] = 5-HT6, replicate exp_1, read-out: %inh 5-HT6 exp_1
[23] = 5-HT6, replicate exp_2, read-out: %inh 5-HT6 exp_2

T1 sequence (P34969 1-432): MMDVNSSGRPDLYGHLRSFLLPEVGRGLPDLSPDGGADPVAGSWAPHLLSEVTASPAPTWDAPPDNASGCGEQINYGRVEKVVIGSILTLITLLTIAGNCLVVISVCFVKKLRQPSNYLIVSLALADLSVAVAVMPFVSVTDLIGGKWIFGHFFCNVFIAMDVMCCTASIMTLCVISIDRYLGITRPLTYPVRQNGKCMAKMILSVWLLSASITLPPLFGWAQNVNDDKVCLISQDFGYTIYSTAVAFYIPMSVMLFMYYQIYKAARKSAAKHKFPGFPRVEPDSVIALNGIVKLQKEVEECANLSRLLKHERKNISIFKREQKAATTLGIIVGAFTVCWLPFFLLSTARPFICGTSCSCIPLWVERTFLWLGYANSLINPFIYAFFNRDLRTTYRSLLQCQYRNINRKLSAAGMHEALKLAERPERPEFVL
T6 sequence (P50406 whole entry): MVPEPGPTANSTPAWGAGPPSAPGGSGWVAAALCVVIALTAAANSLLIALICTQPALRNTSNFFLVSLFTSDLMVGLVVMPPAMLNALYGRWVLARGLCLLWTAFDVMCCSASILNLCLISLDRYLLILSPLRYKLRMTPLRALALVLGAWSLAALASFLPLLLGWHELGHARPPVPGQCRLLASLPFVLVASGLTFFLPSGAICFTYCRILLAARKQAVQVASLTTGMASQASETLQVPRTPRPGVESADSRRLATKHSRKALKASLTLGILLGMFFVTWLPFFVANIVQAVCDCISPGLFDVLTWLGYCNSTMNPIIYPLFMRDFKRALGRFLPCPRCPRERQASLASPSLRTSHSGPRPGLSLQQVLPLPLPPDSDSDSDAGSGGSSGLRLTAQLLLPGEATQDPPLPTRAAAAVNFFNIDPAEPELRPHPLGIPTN
T4 sequence (P00743 234-492 limits assumed): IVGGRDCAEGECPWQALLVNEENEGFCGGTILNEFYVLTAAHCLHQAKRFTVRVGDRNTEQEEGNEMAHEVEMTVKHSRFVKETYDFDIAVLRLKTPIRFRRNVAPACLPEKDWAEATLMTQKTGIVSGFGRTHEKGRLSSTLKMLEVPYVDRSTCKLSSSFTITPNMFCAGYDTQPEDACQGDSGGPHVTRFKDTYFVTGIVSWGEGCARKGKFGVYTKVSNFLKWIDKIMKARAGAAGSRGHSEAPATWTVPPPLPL
T4 sequence (P00743 41-180 partner limits assumed): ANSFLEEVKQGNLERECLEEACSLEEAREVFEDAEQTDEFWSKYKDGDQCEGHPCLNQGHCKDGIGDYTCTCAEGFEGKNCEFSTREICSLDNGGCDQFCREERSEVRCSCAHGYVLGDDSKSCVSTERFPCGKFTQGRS

## c1ccc2[nH]ccc2c1 [SX004]
[1]
  experimental hit status, 5-HT7: 0
[1]; read-out: 5-HT7 % Inhibition by plate position
  inhibition at 10 µM: 0%
[1]; read-out: %inh 5-HT7 average
  inhibition at 10 µM: -2.64%
[1]; read-out: %inh 5-HT7 corrected*
  inhibition at 10 µM: 0%
[1]; read-out: %inh 5-HT7 exp_1
  inhibition at 10 µM: 19%
[1]; read-out: %inh 5-HT7 exp_2
  inhibition at 10 µM: -24%
[2]
  experimental hit status, Thrombin: 0
[3]
  experimental hit status, SETD2: 0
[4]
  experimental hit status, Factor Xa: 0
[5]
  experimental hit status, 5-HT1: 0
[5]; read-out: 5-HT1A % Inhibition by plate position
  inhibition at 10 µM: 0%
[5]; read-out: %inh 5-HT1A average
  inhibition at 10 µM: -11%
[5]; read-out: %inh 5-HT1A corrected*
  inhibition at 10 µM: 0%
[5]; read-out: %inh 5-HT1A exp_1
  inhibition at 10 µM: -0.425%
[5]; read-out: %inh 5-HT1A exp_2
  inhibition at 10 µM: -21%
[6]
  experimental hit status, 5-HT6: 0
[6]; read-out: 5-HT6 % Inhibition by plate position
  inhibition at 10 µM: 16%
[6]; read-out: %inh 5-HT6 average
  inhibition at 10 µM: 16%
[6]; read-out: %inh 5-HT6 corrected*
  inhibition at 10 µM: 16%
[6]; read-out: %inh 5-HT6 exp_1
  inhibition at 10 µM: 16%
[6]; read-out: %inh 5-HT6 exp_2
  inhibition at 10 µM: 16%

## Cc1cc2ccccc2nc1N [SX001]
[1]; [9]
  inhibition at 10 µM: 1.66%
[1]
  experimental hit status, 5-HT7: 0
[1]; [10]
  inhibition at 10 µM: 1.66%
[1]; [11]
  inhibition at 10 µM: 1.66%
[1]; [12]
  inhibition at 10 µM: 7%
[1]; [13]
  inhibition at 10 µM: -3.75%
[2]
  experimental hit status, Thrombin: 0
[3]
  experimental hit status, SETD2: 0
[4]
  Ki: 149 µM
  experimental hit status, Factor Xa: 1
[5]; [14]
  inhibition at 10 µM: 0%
[5]
  experimental hit status, 5-HT1: 0
[5]; [15]
  inhibition at 10 µM: -13%
[5]; [16]
  inhibition at 10 µM: 0%
[5]; [17]
  inhibition at 10 µM: -0.697%
[5]; [18]
  inhibition at 10 µM: -25%
[6]; [19]
  inhibition at 10 µM: 33%
[6]
  experimental hit status, 5-HT6: 0
[6]; [20]
  inhibition at 10 µM: 33%
[6]; [21]
  inhibition at 10 µM: 33%
[6]; [22]
  inhibition at 10 µM: 29%
[6]; [23]
  inhibition at 10 µM: 37%

## CC1CCc2sc(C(=O)O)cc2C1 (stereo not shown) [SX045]
[1]; [9]
  inhibition at 10 µM: 4.44%
[1]; [10]
  inhibition at 10 µM: 4.44%
[1]; [11]
  inhibition at 10 µM: 4.44%
[1]; [12]
  inhibition at 10 µM: -4.73%
[1]; [13]
  inhibition at 10 µM: 14%
[2]; plate layout, label = plate position, Cheng-Prusoff, Km 2.6 µM, read-out: Thrombin Ki
  Ki: 65 µM
[3]; chemiluminescence-based enzymatic assay
  IC50: 300 µM
[3]; fragment concentration 4.4 [log
  SETD2 signal normalised to positive control and internally to compound: 0.78 and 0.88
[3]; fragment concentration 5 [log
  SETD2 signal normalised to positive control and internally to compound: 0.71 and 0.90
[3]; fragment concentration 5.3 [log
  SETD2 signal normalised to positive control and internally to compound: 0.89 and 0.66
[3]; fragment concentration 5.6 [log
  SETD2 signal normalised to positive control and internally to compound: 0.20 and 0.33
[3]; fragment concentration 5.9 [log
  SETD2 signal normalised to positive control and internally to compound: 0.05 and 0.21
[7]; concentration 2.18 [log
  normalized viability (0 = 0 % viability, 1 = 100 % viability): 0.9962 and 1.163 and 0.9666
[7]; concentration 2.66 [log
  normalized viability (0 = 0 % viability, 1 = 100 % viability): 0.9943 and 0.9504 and 0.9572
[7]; concentration 3.14 [log
  normalized viability (0 = 0 % viability, 1 = 100 % viability): 0.9413 and 0.941 and 0.9817
[7]; concentration 3.61 [log
  normalized viability (0 = 0 % viability, 1 = 100 % viability): 0.7873 and 0.9285 and 0.9554
[7]; concentration 4.09 [log
  normalized viability (0 = 0 % viability, 1 = 100 % viability): 0.7566 and 0.9251 and 0.9854
[7]; concentration 4.57 [log
  normalized viability (0 = 0 % viability, 1 = 100 % viability): 0.732 and 0.9248 and 0.8741
[7]; concentration 5.05 [log
  normalized viability (0 = 0 % viability, 1 = 100 % viability): 0.7081 and 0.7223 and 0.7408
[7]; concentration 5.52 [log
  normalized viability (0 = 0 % viability, 1 = 100 % viability): 0.4531 and 0.4099 and 0.4328
[7]; concentration 6 [log
  normalized viability (0 = 0 % viability, 1 = 100 % viability): 0.0008148 and 0.0004041 and 0.01018
[7]; MV4-11 cells, 5 days after treatment
  IC50 cell viability / anti-proliferative EC50: 400 µM
[8]; concentration 2.18 [log
  normalized viability (0 = 0 % viability, 1 = 100 % viability): 1.039 and 0.9762 and 0.9421
[8]; concentration 2.66 [log
  normalized viability (0 = 0 % viability, 1 = 100 % viability): 1.004 and 0.9844 and 0.9162
[8]; concentration 3.14 [log
  normalized viability (0 = 0 % viability, 1 = 100 % viability): 0.9835 and 0.9812 and 0.9002
[8]; concentration 3.61 [log
  normalized viability (0 = 0 % viability, 1 = 100 % viability): 0.9836 and 0.9626 and 0.8884
[8]; concentration 4.09 [log
  normalized viability (0 = 0 % viability, 1 = 100 % viability): 0.9563 and 0.9463 and 0.9164
[8]; concentration 4.57 [log
  normalized viability (0 = 0 % viability, 1 = 100 % viability): 0.8812 and 0.9087 and 0.8366
[8]; concentration 5.05 [log
  normalized viability (0 = 0 % viability, 1 = 100 % viability): 0.7992 and 0.5481 and 0.7667
[8]; concentration 5.52 [log
  normalized viability (0 = 0 % viability, 1 = 100 % viability): 0.5003 and 0.4827 and 0.2594
[8]; concentration 6 [log
  normalized viability (0 = 0 % viability, 1 = 100 % viability): 0.05284 and 0.001062 and 0.1076
[8]; MOLM-13 cells, 5 days after treatment
  IC50 cell viability / anti-proliferative EC50: 333 µM
[5]; [14]
  inhibition at 10 µM: 0%
[5]; [15]
  inhibition at 10 µM: -1%
[5]; [16]
  inhibition at 10 µM: 0%
[5]; [17]
  inhibition at 10 µM: -0.0944%
[5]; [18]
  inhibition at 10 µM: -2%
[6]; [19]
  inhibition at 10 µM: 45%
[6]; [20]
  inhibition at 10 µM: 45%
[6]; [21]
  inhibition at 10 µM: 45%
[6]; [22]
  inhibition at 10 µM: 52%
[6]; [23]
  inhibition at 10 µM: 38%
